Experimental data published in PubChem BioAssay AID1508612.

Test: passive permeability, PAMPA, ADME assay (AID 1508612)
Conditions: pH 7.4, 30.0 min, 50.0 µM

| SMILES | Papp |
| --- | --- |
| COc1cccc2nc(-c3cccs3)nc(NN3C(=O)C=C(C)C3=O)c12 | 353 ×10⁻⁶ cm/s |
| COc1ccc(-n2nc(C3CCCN(C(=O)C4CC4)C3)[nH]c2=O)cc1 (configuration not stated) | 113 ×10⁻⁶ cm/s |
| CCNC(=O)c1ccc(-c2ccc3ncnc(NCC4CCCO4)c3c2)o1 (configuration not stated) | 146 ×10⁻⁶ cm/s |
| NC(=O)C1CCN(c2nc(-c3ccccc3[N+](=O)[O-])cs2)CC1 | 109 ×10⁻⁶ cm/s |
| Cc1ccc(-c2csc(NC(=O)c3ccccc3NS(=O)(=O)c3ccc(C)cc3)n2)cc1 | 35.6 ×10⁻⁶ cm/s |
| CC(Cc1ccc(O)cc1)NCC(O)c1cc(O)cc(O)c1 (configuration not stated) | 1.9 ×10⁻⁶ cm/s |
| Cc1ccc(NC(=O)Nc2cc3c(cc2N2CCCCC2)n(C)c(=O)n3C)cc1Cl | 8 ×10⁻⁶ cm/s |
| Cc1cc2ccccc2n1CC(=O)NC1CCCCC1 | 634 ×10⁻⁶ cm/s |
| Cc1ccc(C(=O)Nc2cccc(C(F)(F)F)c2)cc1Nc1nc(-c2cccnc2)nc2c1cnn2C | 283 ×10⁻⁶ cm/s |
| OCc1ccc(-c2ccc(-c3ccc(CO)s3)o2)s1 | 956 ×10⁻⁶ cm/s |
| O=c1cc(/C=C/c2c(F)cccc2Cl)[nH]c2ccccc12 | 205 ×10⁻⁶ cm/s |
| COC[C@@H]1CN(C(=O)c2nn(C)c3ccccc23)C[C@H]1c1nc(C)no1 | 165 ×10⁻⁶ cm/s |
| NC(=O)C1CCN(c2nc(-c3cccc4ccccc34)cs2)CC1 | 641 ×10⁻⁶ cm/s |
| Cc1cccc(N(C)c2nc3ccccc3c3nnc(C)n23)c1 | > 1000 ×10⁻⁶ cm/s |
| O=C(O)CNC(=O)c1c(O)c2ccccc2n(Cc2ccccc2)c1=O | 14.6 ×10⁻⁶ cm/s |
| CCOc1ccc(CNC(=O)CCCn2nc(C)c3c(C)n(-c4ccc(C)cc4)nc3c2=O)cc1 | 843 ×10⁻⁶ cm/s |
| O=C(NC1CC1)c1nc(-c2cccnc2)c2cnccn12 | 31.8 ×10⁻⁶ cm/s |
| O=C(Nc1ccc(S(=O)(=O)Nc2nccs2)cc1)c1ccnc2ccccc12 | 2.3 ×10⁻⁶ cm/s |
| O=c1[nH]c(N2CCOCC2)nc2c1CCN(Cc1cc(Cl)ccc1F)CC2 | > 1000 ×10⁻⁶ cm/s |
| O=C(c1nc(-c2ccc(Cl)cc2Cl)c2cnccn12)N1CCOCC1 | > 1000 ×10⁻⁶ cm/s |
| Cn1ccc2c(C(=O)NCCC(N)=O)nc(-c3cccc(CO)c3)cc21 | 29.9 ×10⁻⁶ cm/s |
| CN1CCN(C(=O)c2ccc3cc(CCNc4ncnc5ccc(C#N)cc45)ccc3c2)CC1 | 545 ×10⁻⁶ cm/s |

| SMILES | Papp |
| --- | --- |
| Cc1ccc(C)c(CN2CCC(CNC(=O)Nc3ccc(Br)cc3F)CC2)c1 | > 1000 ×10⁻⁶ cm/s |
| Cc1cc(SCc2sc(-c3ccc(C(F)(F)F)cc3)nc2C)ccc1OCC(=O)O | 520 ×10⁻⁶ cm/s |
| Cc1ccc(S(=O)(=O)Nc2ccccc2C(=O)Nc2cnc(-c3ccccc3)cn2)cc1 | > 1000 ×10⁻⁶ cm/s |
| NC(=O)C1CCN(c2ncc(Br)cn2)CC1 | 61.5 ×10⁻⁶ cm/s |
| CCOC(=O)c1ccc2c(c1)c(C(C)=O)c(C)n2-c1ccc(OC)cc1 | > 1000 ×10⁻⁶ cm/s |
| Cc1cc(N2CCN(c3ccccc3)CC2)nc(-n2nc(C)cc2C)n1 | > 1000 ×10⁻⁶ cm/s |
| CCOC(=O)c1ccnc(CNCC(=O)N(CC)CCN(C)C)c1 | 40.4 ×10⁻⁶ cm/s |
| O=C(NC1CCN(c2cc(-c3ccc(Cl)cc3)[nH]n2)C1)c1ccccc1 (configuration not stated) | 706 ×10⁻⁶ cm/s |
| Cc1cnc(CNc2nc(-c3cccc(NS(C)(=O)=O)c3)nc3ccccc23)cn1 | > 1000 ×10⁻⁶ cm/s |
| CN1CCCN(C(c2ccccc2)c2ccc(Cl)cc2)CC1 (configuration not stated) | 652 ×10⁻⁶ cm/s |
| COc1c(O)cc2c(c1OC)-c1ccc(SC)c(=O)cc1C(NC(C)=O)CC2 (configuration not stated) | 19.5 ×10⁻⁶ cm/s |
| CC1(COc2ccc3c(c2)ncn3-c2ccc3cccc(N4CCC(N)CC4)c3n2)COC1 | 25.2 ×10⁻⁶ cm/s |
| CN(C)CCNC(=O)c1nc(-c2ccccc2)cc2[nH]ccc12 | 838 ×10⁻⁶ cm/s |
| CCN(CC)S(=O)(=O)c1cccc(C(=O)Nc2ccc(C#N)cc2)c1 | > 1000 ×10⁻⁶ cm/s |
| CC(C)c1ccccc1-c1nc2c(c(NCc3ccc(-c4cccnc4)cc3)n1)CNC2 | 478 ×10⁻⁶ cm/s |
| CN1Cc2c(cc(N3CCOCC3)nc2-c2ccccc2OC(F)(F)F)C1=O | > 1000 ×10⁻⁶ cm/s |
| O=[S+]([O-])(Nc1ccc(N2CCNCC2)cc1)c1ccc(NCc2ccc(Br)cc2O)cc1 | 7.93 ×10⁻⁶ cm/s |
| CC(C)N(CCCNC(=O)Nc1ccc(C(C)(C)C)cc1)C[C@H]1O[C@@H](n2ccc3c(N)ncnc32)[C@H](O)[C@@H]1O | 10.7 ×10⁻⁶ cm/s |
| CC(=O)Nc1ncc(S(=O)(=O)Nc2cnccc2C(=O)Nc2nc(-c3ccccc3)cs2)s1 | 21.4 ×10⁻⁶ cm/s |
| C#CCNC(=O)c1nc(-c2ccc([S+](C)(=O)[O-])cc2)c2cnccn12 | < 1 ×10⁻⁶ cm/s |
| CC1Oc2cc3c(-c4c(O)cc(O)c5c(O)c6c(cc45)OC(C)C(C)C6=O)c(O)cc(O)c3c(O)c2C(=O)C1C (configuration not stated) | 8.5 ×10⁻⁶ cm/s |
| COc1ccc(CN2CCN(C(=O)c3cc4c(s3)CCC4)CC2)cc1 | 997 ×10⁻⁶ cm/s |

| SMILES | Papp |
| --- | --- |
| Cc1ccc(CN2CCOC[C@H]2c2ncc(-c3cccc(F)c3)[nH]2)cc1 | > 1000 ×10⁻⁶ cm/s |
| COc1cc(/C=C(\C#N)c2nc3ccccc3[nH]2)ccc1OCc1ccc(F)cc1 | 641 ×10⁻⁶ cm/s |
| Cc1ccc(C(=O)NC2CCN(c3cnn(CC4CC4)c(=O)c3)CC2)cc1C | 473 ×10⁻⁶ cm/s |
| NC(=O)C1CCN(c2nc(-c3ccc(Br)cc3)cs2)CC1 | 241 ×10⁻⁶ cm/s |
| O=C(Nc1nc(-c2ccccc2)cs1)c1ccncc1NS(=O)(=O)c1cccnc1 | 50.8 ×10⁻⁶ cm/s |
| COc1ccc(-n2c(C)c(C(C)=O)c3ccccc32)cc1 | > 1000 ×10⁻⁶ cm/s |
| Cc1ccccc1C(=O)Nc1sc2c(c1C(=O)NCc1ccco1)CCC(C(C)(C)C)C2 (configuration not stated) | 167 ×10⁻⁶ cm/s |
| Fc1cc(Nc2nc(-c3ccncc3)nc3ccccc23)ccc1OCC(F)(F)F | 58.8 ×10⁻⁶ cm/s |
| CSc1nnc2c3ccccc3n(CCc3ccccc3)c2n1 | > 1000 ×10⁻⁶ cm/s |
| COc1cccc(CNc2ccc(S(=O)(=O)Nc3nc4ccccc4[nH]3)cc2)c1O | 30.8 ×10⁻⁶ cm/s |
| O=C1Nc2cc(Cl)ccc2/C1=C\c1cc(Cl)c(O)c(Cl)c1 | 78 ×10⁻⁶ cm/s |
| c1ccc(-c2nc(N3CCCCCC3)c3ccccc3n2)nc1 | > 1000 ×10⁻⁶ cm/s |
| COc1ccc(C2Nc3ccccc3C(=O)N2Cc2cccnc2)cc1COc1c(C)cc(NC(C)=O)cc1C (configuration not stated) | > 1000 ×10⁻⁶ cm/s |
| COc1cccc(CNc2ccc(S(=O)(=O)Nc3nc4ccccc4o3)cc2)c1O | 106 ×10⁻⁶ cm/s |
| CC1CCC(n2c3cnccc3c3cnc(Nc4ccc5c(n4)CCN(C(=O)CO)C5)nc32)CC1 (configuration not stated) | 135 ×10⁻⁶ cm/s |
| O=C(Nc1nnc(-c2ccco2)o1)c1ccc(Cl)cc1 | 24.2 ×10⁻⁶ cm/s |
| CC[C@@](C)(Nc1ccnc(-c2c[nH]c3ncccc23)n1)C(=O)NCC(F)(F)F | 612 ×10⁻⁶ cm/s |
| Nc1nc2c(s1)C(c1c(Cl)cccc1Cl)CC(=O)N2 (configuration not stated) | 5.54 ×10⁻⁶ cm/s |
| COc1ccc(CNC(=O)Cn2nc3c(cc2=O)CCCC3)cc1 | 40.6 ×10⁻⁶ cm/s |
| CCN1CCc2c(sc(NC(=O)Nc3ccc(Cl)c(Cl)c3)c2C(N)=O)C1 | 435 ×10⁻⁶ cm/s |
| CC(=O)Nc1ncc(S(=O)(=O)N2CCOCC2)s1 | 37.9 ×10⁻⁶ cm/s |
| O=C(c1cnc(N2CCCCC2)c2ccccc12)N1CCN(c2ccc(Cl)cc2)CC1 | > 1000 ×10⁻⁶ cm/s |

| SMILES | Papp |
| --- | --- |
| O=C1Nc2ccccc2/C1=C\c1cc(Br)c(O)c(Br)c1 | 50.5 ×10⁻⁶ cm/s |
| Cc1cc(C)nc(NC(=S)N2CCN(c3ccc(Cl)cc3F)CC2)c1 | > 1000 ×10⁻⁶ cm/s |
| CC1CCC(NC(=O)c2ccc3c(c2)N(Cc2ccccc2F)C(=O)c2ccccc2S3)CC1 (configuration not stated) | 2.7 ×10⁻⁶ cm/s |
| CCN(CC)CCNC(=O)c1c(C)[nH]c(/C=C2\C(=O)Nc3ccc(F)cc32)c1C | 235 ×10⁻⁶ cm/s |
| COc1cccc(S(=O)(=O)Nc2cnccc2C(=O)Nc2nc(-c3ccccc3)cs2)c1 | 696 ×10⁻⁶ cm/s |
| CCn1c(C)c(C(C)=O)c(C)c1C(=O)Nc1cccc([S+](=O)([O-])N(C)C)c1 | 405 ×10⁻⁶ cm/s |
| Cc1cc(NS(=O)(=O)c2ccc(NCCc3ccc(Cl)c(Cl)c3)cc2)no1 | 406 ×10⁻⁶ cm/s |
| Cc1ccc2c(c1)/C(=C\c1cc(Cl)c(O)c(Cl)c1)C(=O)N2 | 97.5 ×10⁻⁶ cm/s |
| O=C1CCCC2=C1C(c1ccccc1Cl)N=C(Nc1nc3ccccc3o1)N2 (configuration not stated) | > 1000 ×10⁻⁶ cm/s |
| Cc1nc2ccc(Nc3nc(-c4ccncc4)nc4ccccc34)cc2s1 | 55.8 ×10⁻⁶ cm/s |
| Cc1cccc2nc(NC3=NC(c4[nH]ncc4Cl)C4=C(CCCC4=O)N3)oc12 (configuration not stated) | 624 ×10⁻⁶ cm/s |
| Cc1cccc(C(=O)N2CCc3cc(-c4nc(NC(=O)Cc5ccc6c(c5)OCO6)sc4C)ccc32)c1 | 59 ×10⁻⁶ cm/s |
| COc1ccccc1CNC(=O)CCCn1nc(C)c2c(C)n(-c3ccc(C)cc3)nc2c1=O | 604 ×10⁻⁶ cm/s |
| OCc1ccc(-c2cc3c(ccn3Cc3cccnc3)c(C3=CCOCC3)n2)cc1 | 478 ×10⁻⁶ cm/s |
| COc1ccc(C(=O)N2CCCC(c3nn(-c4ccc(OC)cc4)c(=O)[nH]3)C2)cc1 (configuration not stated) | 599 ×10⁻⁶ cm/s |
| COc1ccc(-n2c(C)cc(C3=NNC(=NC4CC4)SC3)c2C)cc1 | 610 ×10⁻⁶ cm/s |
| Cc1cc(-c2nnc3n2CCCCC3)c(C)n1-c1ccc(Cl)c(Cl)c1 | > 1000 ×10⁻⁶ cm/s |
| CC(C)CNc1ncnc2onc(-c3ccc(Cl)cc3)c12 | > 1000 ×10⁻⁶ cm/s |
| Cc1ccc(S(=O)(=O)Nc2cnccc2C(=O)Nc2nc3ccccc3s2)cc1 | 475 ×10⁻⁶ cm/s |
| CCOc1ccc(CCNC(=O)c2ccnn2Cc2cccc(C)c2)cc1OCC | > 1000 ×10⁻⁶ cm/s |
| Fc1cc(F)cc(Nc2nc(-c3ccncc3)nc3ccccc23)c1 | 84.9 ×10⁻⁶ cm/s |
| O=C(NCCCc1ccccc1)c1cccc(-c2cc(O)c3ncccc3c2)c1 | < 1 ×10⁻⁶ cm/s |

| SMILES | Papp |
| --- | --- |
| Cc1cccc(-c2csc(N3CCC(C(N)=O)CC3)n2)c1 | 475 ×10⁻⁶ cm/s |
| CCN1C(=O)c2ccccc2[S@](=O)c2ccc(C(=O)NCc3ccc(C#N)cc3)cc21 | 872 ×10⁻⁶ cm/s |
| Cc1nn(Cc2ccc(Cl)cc2)c(C)c1NC(=O)c1cc(-c2ccc3c(c2)OCO3)on1 | 836 ×10⁻⁶ cm/s |
| NC(=O)NCC(=O)N[C@H]1CC[C@H](Nc2nccc(-c3ccncc3)n2)C1 | < 1 ×10⁻⁶ cm/s |
| CCNC(=O)c1noc(-c2cc(C(C)C)c(O)cc2O)c1-c1ccc(CN2CCOCC2)cc1 | 335 ×10⁻⁶ cm/s |
| N#Cc1ccc(C(=O)Nc2ccc(Cl)c(-c3nc4cc(Cl)ccc4o3)c2)c(F)c1 | < 1 ×10⁻⁶ cm/s |
| CCOc1ccc(CCNC(=O)c2cc3sccc3n2Cc2ccccc2)c(F)c1OCC | < 1 ×10⁻⁶ cm/s |
| CC(=O)c1c(C)[nH]c(C(=O)Nc2ccc(C)c(S(=O)(=O)N3CCCCCC3)c2)c1C | 792 ×10⁻⁶ cm/s |
| Fc1ccc(-c2csc3ncnc(Sc4nnnn4C4CC4)c23)cc1 | 834 ×10⁻⁶ cm/s |
| CN[C@@H](C)C(=O)N[C@@H]1C(=O)N(Cc2c(C)ccc3ccccc23)c2ccc(C#N)cc2N(C(C)=O)[C@H]1C | 551 ×10⁻⁶ cm/s |
| Fc1cccc(F)c1Nc1nc(-c2ccncc2)nc2ccccc12 | > 1000 ×10⁻⁶ cm/s |
| Cc1ccc(NS(=O)(=O)c2cccc(C(=O)O)c2)cc1S(=O)(=O)N1CCOCC1 | 23.4 ×10⁻⁶ cm/s |
| CC1(C)CNc2cc(NC(=O)c3cccnc3NCc3ccncc3)ccc21 | > 1000 ×10⁻⁶ cm/s |
| Cc1cc(NC(=S)N2CCN(c3cccc(C(F)(F)F)c3)CC2)nc2ccccc12 | 31.5 ×10⁻⁶ cm/s |
| NC(=O)C1CCN(c2ncc(-c3cccc(F)c3)s2)CC1 | 896 ×10⁻⁶ cm/s |
| CN(C)c1ccccc1-c1csc(N2CCC(C(N)=O)CC2)n1 | 331 ×10⁻⁶ cm/s |
| Cc1ccc(S(=O)(=O)Nc2cnccc2C(=O)Nc2ccc(-c3nn[nH]n3)cc2)cc1 | 1.4 ×10⁻⁶ cm/s |
| O=C(Nc1ncnc2sc3c(c12)CCCCC3)c1ccco1 | > 1000 ×10⁻⁶ cm/s |
| Cc1nc(-c2ccco2)cc([C@H]2CN3CC[C@H]2C[C@@H]3CNC(=O)NC2CCCCC2)n1 | 475 ×10⁻⁶ cm/s |
